# How the values were obtained:
# hBSMCs = test: Measurements of calcium transients (Indo-1) in hBSMCs; type: cell-based, human; conditions: 50 μM, 30 minutes
# Experimental: Cells were washed with a Tyrode solution containing (in mmol/L): 5 HEPES, 154 NaCl, 4 KCl, 2 CaCl2, 1 MgCl2, 5.5 D-glucose, at pH 7.35 and placed on an inverted microscope. Cells were kept in Tyrode solution and treated with a KCl depolarizing solution containing (in mmol/L): 5 HEPES, 118 NaCl, 40 KCl, 2 CaCl2, 1 MgCl2, 5.5 D-glucose, at pH 7.35. Calcium transients were analyzed as the ratio of fluorescence signals measured at 400 nm and 490 nm following excitation of Indo-1-AM-loaded cells at 350 nm. Experiments were recorded and analyzed with Igor® Software, using the functions added by Jason Rothman (Neuromatic, www.thinkrandom.com).
# PDE4B = test: Phosphodiesterase activity in anti-PDE4B immunoprecipitates from treated tracheal smooth muscle cells; type: cell-based, mouse; conditions: tracheal smooth muscle cells of wild-type mice (PI3Kγ+/+); 50 μM, 30 minutes
# Experimental: For protein extraction from murine tracheal smooth muscle cells (mTSMCs) and human bronchial smooth muscle cells (hBSMCs), cells were treated with the indicated drugs/peptides and immediately lysed in cold lysis buffer containing 120 mmol/L NaCl, 50 mmol/L Tris-HCl (pH 8.0), complete protease inhibitors (Roche Applied Science, Indianapolis, Ind.) and phosphatase inhibitors (50 mmol/L sodium fluoride, 1 mmol/L sodium orthovanadate and 10 mmol/L sodium pyrophosphate). After 30 min of incubation on ice, lysates were centrifuged at 13000 rpm for 10 min at 4° C. and used for either Western blotting or subjected to immunoprecipitation and measurements of phosphodiesterase activity. […]
# Phosphodiesterase activity in immunoprecipitates was measured according to the two-step method of Thompson and Appleman, as previously described (2), with minor modifications. […] The amount of radiolabeled adenosine in the supernatant was quantified by scintillation counting (Ultima Gold liquid scintillation from Perkin Elmer, Waltham, Mass.).
# Murine tracheal smooth muscle cells were cultured from explants of trachea using previously described methods with modifications. […] More than 90% of these cells were smooth muscle cells, as determined by immunofluorescence performed with an antibody specific for smooth muscle actin. […]
# [1] = system: cAMP levels in the airways; test: cAMP extraction and quantification in trachea and lungs of treated mice; type: in vivo, BALB/C mice; conditions: intra-tracheal, 1.5 μg/mouse, 30 minutes; vs PBS or P1 control peptide
# Experimental: Lungs and trachea were explanted from animals following euthanasia, pulverized in liquid nitrogen and used for cold extraction of cAMP with 6% trichloroacetic acid. Samples were sonicated for 10 seconds and centrifuged at 13000 rpm at 4° C. for 15 minutes. Supernatants were washed four times with five volumes of diethyl ether saturated with water and lyophilized. cAMP content was detected with an Amersham cAMP BioTrak Enzymeimmunoassay System (GE Healthcare Life Sciences, Pittsburgh, USA, product code: RPN225), according to the manufacturer's protocol.
# Wild-type BALB/C mice were injected by the intra-tracheal route with 1.5 μg of the Trojan peptide derived from PI3Kγ conjugated to fluorescein or vehicle, in a final volume of 70 μL of PBS. After 30 minutes, animals were anesthetized, the trachea and lungs were insufflated with PBS, extracted and frozen in OCT. Cryosections of 10 microns were obtained with a Leica CM1850 cryostat (Leica Microsystems GmbH, Wetzlar, Germany) and fluorescence was acquired with a Zeiss Observer-Z1, equipped with an Apotome module (Carl Zeiss, Oberkochen, Germany).
sequence,measurement,setting,value
RQIKIWFQNRRMKWKKGKATHRSPGQIHLVQRHPPSEESQAF (fusion peptide comprising SEQ ID No.1 and SEQ ID No.3) [Trojan peptide derived from PI3Kγ],influx of Ca2+ induced by KCl (through VOCCs),hBSMCs; 40 mM KCl depolarizing solution,completely abolished
same,maximum peak of Ca2+ transients induced by carbachol,"hBSMCs; carbachol 10 μM, vs vehicle or P1",significantly lower
same,catalytic activity of PDE4B,PDE4B,significantly reduced
same,"cAMP levels in the trachea and in the lungs, higher than controls",[1],30%
